Laboratory results: publication PMC10247784, “Physiological activation of human and mouse bitter taste receptors by bile acids” (Communications Biology, 2023)

Molecular target: T1, mouse Tas2r108 (Mus musculus, UniProt Q9JKT3)
T1 construct: expressed in transfected cells; host or cells: HEK293T-Gα16gust44
T1 sequence (Q9JKT3 1-297): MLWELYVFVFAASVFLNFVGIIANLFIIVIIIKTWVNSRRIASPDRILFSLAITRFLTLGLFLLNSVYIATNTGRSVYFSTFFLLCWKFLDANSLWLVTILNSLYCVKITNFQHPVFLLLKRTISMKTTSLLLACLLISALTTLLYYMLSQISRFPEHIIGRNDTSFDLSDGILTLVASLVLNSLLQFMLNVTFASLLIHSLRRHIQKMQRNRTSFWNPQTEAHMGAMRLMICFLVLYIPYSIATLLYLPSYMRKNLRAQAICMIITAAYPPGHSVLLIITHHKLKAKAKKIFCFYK
Test: Calcium imaging assay (FLIPR), HEK293T-Gα16gust44 cells transfected with mouse Tas2r108
Format: cell-based
Conditions: for Δ F/F: Tas2r108
Procedure: This set of bile acids was chosen because of their commercial availability in high purities, their diversity within the class of bile acids and their previous detection and quantitation in human blood. Stock solutions were prepared in DMSO.
As basal growth medium for the HEK293T-Gα16gust44 cell line[17],[59] served Dulbecco’s modified eagle medium (DMEM) (Thermo Fisher Scientific, Darmstadt, Germany) supplemented with 10 % fetal bovine serum (Sigma-Aldrich, Steinheim, Germany), 2 mM L-glutamine (Sigma-Aldrich, Steinheim, Germany), 100 units/ml penicillin (Sigma Aldrich, Steinheim, Germany) and 100 µg/ml streptomycin (Sigma Aldrich, Steinheim, Germany). Growth conditions were 37 °C, 5 % CO2 and saturated air-humidity[60].
HEK293T-Gα16gust44 cells were seeded on poly-D-lysine (10 µg/ml) coated 96-well plates to reach a confluence of 40-60 % the next day. For transient transfection 150 ng of plasmid DNA containing the receptor of interest and 0.3 µl lipofectamine 2000 (Thermo Fisher Scientific, Darmstadt, Germany) per well were used and transfection took place according to the manual of lipofectamine 2000. […] The empty vector DNA (mock) was transfected as negative control[14],[41].
Cells were loaded using the calcium-sensitive fluorescent dye Fluo-4-AM (Abcam, Cambridge, Great Britain) in the presence of 2.5 mM probenecid (Sigma-Aldrich, Steinheim, Germany) the day after transfection[13],[41]. 1 h after loading, cells were washed with C1 buffer using a BioTek Cell Washer, incubated in the dark for half an hour and washed again. For automated agonist application and measurement of fluorescence changes, a FLIPR^TETRA device (Molecular Devices, San José, United States) was used. Viability of cells was tested by application of 100 nM Somatostatin 14 (Bachem, Bubendorf, Switzerland)[42].
Measured data were negative control corrected by subtracting the signal of the mock-transfected cells and exported to Microsoft Excel using the FLIPR software ScreenWorks 4.2. In Microsoft Excel software, standardization of maximum fluorescence intensities to the basal fluorescence and normalization to the buffer-only control was done to calculate the relative fluorescence changes (ΔF/F).
Initial screening experiments performed in duplicate wells were confirmed by at least one replication and representative traces were selected for display. All dose-response relationships were determined by three independent experiments (biological replicates) performed in duplicates (technical replicates). Threshold concentrations, defined as lowest substance concentrations leading to statistically significant elevated fluorescence changes in receptor-transfected cells compared with empty vector-transfected cells, were determined using SigmaPlot with Student’s t-test to evaluate statistical significance (p < 0.01).

Δ F/F (conc. 0,01 mM): 0.0107 | Δ F/F (conc. 0,1 mM): 0.0182 | Δ F/F (conc. 0,03 mM): 0.00676 | Δ F/F (conc. 0,3 mM): 0.06222 | Δ F/F (conc. 0,001 mM): 0.002806 | Δ F/F (conc. 1 mM): 0.4313 | Δ F/F (conc. 0,003 mM): 0.003344 | RLU (Time 0 s): 0 RLU | RLU (Time 2 s): 7.69 RLU | RLU (Time 4 s): 11.6885 RLU | RLU (Time 6 s): 14.9144 RLU | RLU (Time 8 s): 2.856 RLU | RLU (Time 12 s): -20.1582 RLU | RLU (Time 14 s): -24.1348 RLU | RLU (Time 16 s): -22.3266 RLU | RLU (Time 18 s): -18.1852 RLU | RLU (Time 137.562 s): 194.213 RLU | RLU (Time 143.562 s): 209.767 RLU | RLU (Time 149.562 s): 181.475 RLU | RLU (Time 155.562 s): 183.974 RLU | RLU (Time 161.562 s): 173.161 RLU | RLU (Time 167.562 s): 179.231 RLU | RLU (Time 173.562 s): 187.201 RLU | RLU (Time 179.562 s): 174.25 RLU | RLU (Time 185.562 s): 178.039 RLU | RLU (Time 191.562 s): 190.798 RLU | RLU (Time 197.562 s): 173.368 RLU | RLU (Time 203.562 s): 190.575 RLU | RLU (Time 209.562 s): 197.772 RLU | RLU (Time 215.562 s): 163.432 RLU | RLU (Time 221.562 s): 153.254 RLU | RLU (Time 227.562 s): 164.71 RLU | RLU (Time 233.562 s): 163.97 RLU | RLU (Time 239.562 s): 147.809 RLU | RLU (Time 245.562 s): 173.351 RLU | RLU (Time 293.562 s): 149.968 RLU | RLU (Time 299.562 s): 165.311 RLU | RLU (Time 305.562 s): 159.539 RLU | RLU (Time 311.562 s): 142.659 RLU | RLU (Time 317.562 s): 150.371 RLU | RLU (Time 323.562 s): 171.186 RLU | RLU (Time 329.562 s): 175.087 RLU | RLU (Time 335.562 s): 172.597 RLU | RLU (Time 341.562 s): 183.065 RLU | RLU (Time 347.562 s): 201.017 RLU | RLU (Time 353.562 s): 156.745 RLU | RLU (Time 359.562 s): 154.549 RLU | Activation threshold concentration Tas2r108 (p < 0.01 vs empty vector): 100 µM | RLU (time 18.797 s): -15.9795 RLU | RLU (time 20.797 s): -38.1063 RLU | RLU (time 22.797 s): -53.0656 RLU | RLU (time 24.797 s): -41.093 RLU | RLU (time 26.797 s): 10.1284 RLU | RLU (time 28.797 s): -11.2259 RLU | RLU (time 30.797 s): 42.3249 RLU | RLU (time 32.797 s): 14.625 RLU | RLU (time 34.797 s): 31.6874 RLU | RLU (time 36.797 s): 61.9173 RLU | RLU (time 38.797 s): 95.7369 RLU | RLU (time 40.797 s): 96.8837 RLU | RLU (time 42.797 s): 120.977 RLU | RLU (time 44.797 s): 126.004 RLU | RLU (time 46.797 s): 150.942 RLU | RLU (time 48.797 s): 139.074 RLU | RLU (time 50.797 s): 165.429 RLU | RLU (time 52.797 s): 178.894 RLU | RLU (time 54.797 s): 165.569 RLU | RLU (time 56.797 s): 184.08 RLU | RLU (time 58.797 s): 203.839 RLU | RLU (time 60.797 s): 208.856 RLU | RLU (time 62.797 s): 198.008 RLU | RLU (time 64.797 s): 192.835 RLU | RLU (time 66.797 s): 228.59 RLU | RLU (time 68.797 s): 198.902 RLU | RLU (time 70.797 s): 190.075 RLU | RLU (time 72.797 s): 224.267 RLU | RLU (time 74.797 s): 237.802 RLU | RLU (time 76.797 s): 195.521 RLU | RLU (time 78.797 s): 205.632 RLU | RLU (time 80.797 s): 224.221 RLU | RLU (time 82.797 s): 233.724 RLU | RLU (time 84.797 s): 213.598 RLU | RLU (time 86.797 s): 226.297 RLU | RLU (time 88.797 s): 230.997 RLU | RLU (time 90.797 s): 224.416 RLU | RLU (time 92.797 s): 254.391 RLU | RLU (time 94.797 s): 247.364 RLU | RLU (time 96.797 s): 231.951 RLU | RLU (time 98.797 s): 231.597 RLU | RLU (time 100.797 s): 210.393 RLU | RLU (time 102.797 s): 230.574 RLU | RLU (time 104.797 s): 222.002 RLU | RLU (time 106.797 s): 222.39 RLU | RLU (time 108.797 s): 212.16 RLU | RLU (time 110.797 s): 216.252 RLU | RLU (time 112.797 s): 216.052 RLU | RLU (time 114.797 s): 221.895 RLU | RLU (time 116.797 s): 215.342 RLU | RLU (time 118.797 s): 209.462 RLU | RLU (time 120.797 s): 222.728 RLU | RLU (time 122.797 s): 206.205 RLU | RLU (time 124.797 s): 193.188 RLU | RLU (time 126.797 s): 207.494 RLU | RLU (time 128.797 s): 210.082 RLU | RLU (time 130.797 s): 216.943 RLU | RLU (time 132.797 s): 210.174 RLU | RLU (time 134.797 s): 194.975 RLU | RLU (time 136.797 s): 218.165 RLU
Structure (SMILES): C[C@H](CCC(=O)NCC(=O)O)[C@H]1CC[C@H]2[C@@H]3[C@H](O)C[C@@H]4C[C@H](O)CC[C@]4(C)[C@H]3C[C@H](O)[C@]12C [Glycocholic Acid, glycocholic acid]
